The source of these data is article PMC4710608 (Environmental Health Perspectives, 2015).

For assay [1], the target named is T1, PPARγ (Homo sapiens, UniProt P37231).
T1 construct: gene PPARG
T1 sequence (P37231 231-505 limits assumed): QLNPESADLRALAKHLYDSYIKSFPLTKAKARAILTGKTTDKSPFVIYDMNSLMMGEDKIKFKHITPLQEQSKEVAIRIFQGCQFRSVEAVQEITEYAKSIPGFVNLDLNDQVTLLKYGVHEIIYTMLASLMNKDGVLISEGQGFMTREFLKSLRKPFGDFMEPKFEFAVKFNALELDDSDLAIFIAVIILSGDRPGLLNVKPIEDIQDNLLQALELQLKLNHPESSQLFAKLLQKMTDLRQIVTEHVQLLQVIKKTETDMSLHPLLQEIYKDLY
Put plainly: competitive TR-FRET binding assay (terbium donor, Fluormone Green tracer displacement). On the technique in general: Time-resolved FRET reads energy transfer from a long-lived donor to a nearby acceptor.

Assay [2] addresses T2, PPARγ (Mus musculus, UniProt P37238).
T2 construct: gene Pparg
T2 sequence (P37238 193-505): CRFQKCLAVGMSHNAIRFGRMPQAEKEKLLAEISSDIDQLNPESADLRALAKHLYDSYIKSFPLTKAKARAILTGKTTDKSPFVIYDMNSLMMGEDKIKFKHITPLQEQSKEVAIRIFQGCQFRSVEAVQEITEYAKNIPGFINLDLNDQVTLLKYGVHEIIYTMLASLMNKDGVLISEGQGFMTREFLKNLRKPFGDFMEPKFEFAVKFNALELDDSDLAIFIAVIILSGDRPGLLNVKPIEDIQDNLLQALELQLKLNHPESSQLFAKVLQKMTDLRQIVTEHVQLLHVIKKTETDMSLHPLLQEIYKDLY
Kind of assay: GAL4-UAS luciferase transactivation assay in HEK293T/[…] cells. Type of assay: cell-based.

A word on the Kd: it is a measure of binding affinity in units of concentration. Turning to `CCCCC(CC)COC(=O)CC(C(=O)OCC(CC)CCCC)S(=O)(=O)O` (centres unmarked) [DOSS], the affinity on PPARγ [1], expressed as Kd, was 1380 nM. Moreover, the “GAL4-UAS luciferase transactivation assay in HEK293T/17 cells” value at PPARγ [2] is recorded as “DOSS alone elicited dose-dependent increases in PPARγ-driven luciferase expression in the low ppm range”.
